Results from patent US8633242B2, “Benzylidene indanones and processes for preparation and use thereof” (Council of Scientific and Industrial Research, priority 2011, dated 2014).

Key:
[1] = test system: A549 (Lung); test: Sulphorhodamine B cytotoxicity assay, A549; type: cell-based, human; set-up: key to Human cancer cell lines IC50, A549 (Lung): Inactive: inactive, if IC50 > 100 μM; details: SRB assay, 48 hours incubation; for IC50: Homo sapiens, A549, read-out: Human cancer cell lines IC50, A549 (Lung)
Protocol: (§1) The benzylidene analogues were evaluated by Sulphorhodamine B Assay as per reported method [Skehan et al., J. Natl. Cancer Inst. 1990, 82, 1107]. The human cancer cell lines procured from National Cancer institute, Frederick, U.S.A. were used in present study. Cells were grown in tissue culture flasks in complete growth medium (RPMI-1640 medium with 2 mM glutamine, pH 7.4 supplemented with 10% fetal bovine serum, 100 μg/ml streptomycin and 100 units/ml penicillin) in a carbon dioxide incubator (37° C., 5% CO2, 90% RH). The cells at subconfluent stage were harvested from the flask by treatment with trypsin (0.05% in PBS (pH 7.4) containing 0.02% EDTA). Cells with viability of more than 98%, as determined by trypan blue exclusion, were used for determination of cytotoxicity. The cell suspension required concentration of cells was prepared in complete growth medium. Stock solution of 2×10^−2 M of compounds were prepared in DMSO and further dilution was carried out complete growth medium containing 50 μg/ml of gentamycin to obtained working test solution of required concentration. In vitro cytotoxicity against various human cancer cell lines was determined using 96-well cell culture plates. The 100 μl of cell suspension was added to each well of the 96-well cell culture plates. The cells were allowed to grow in CO2 incubator (37° C., 5% CO2, 90% RH) for 24 hours. The test materials in complete growth medium (100 μl) were added after 24 hours incubation to the wells containing cell suspension. The plates were further incubated for 48 hours (37° C. in an atmosphere of 5% CO2 and 90% relative humidity) in a carbon dioxide incubator after addition of test material and then the cell growth was stopped by gently layering trichloroacetic acid (50% TCA, 50 μl) on top of the medium in all the wells. The plates were incubated at 4° C. for one hour to fix the cells attached to the bottom of the wells. The liquid of all the wells was gently pipetted out and discarded. The plates were washed five times with distilled water to remove TCA, growth medium low molecular weight metabolites, serum proteins etc. and air-dried. Cell growth was measured by staining with sulforhodamine B dye. The adsorbed dye was dissolved in Tris-HCl Buffer (100 μl/well, 0.01M, pH 10.4) and plates were gently stirred for 10 minutes on a mechanical stirrer. The optical density (OD) was recorded on ELISA reader at 540 nm. 5-Fluorouracil, Paclitaxel (Taxol), Mitomycin-c and Adriamycin were used as positive controls.

[2] = test system: PC-3 (prostate); test: Sulphorhodamine B cytotoxicity assay, PC-3; type: cell-based, human; set-up: key to Human cancer cell lines IC50, PC-3 (prostate): Inactive: inactive, if IC50 > 100 μM; details: SRB assay, 48 hours incubation; for IC50: Homo sapiens, read-out: Human cancer cell lines IC50, PC-3 (prostate)
Protocol: as §1

[3] = test system: HCT (Colon); test: Sulphorhodamine B cytotoxicity assay, HCT; type: cell-based, human; set-up: key to Human cancer cell lines IC50, HCT (Colon): Inactive: inactive, if IC50 > 100 μM; details: SRB assay, 48 hours incubation; for IC50: Homo sapiens, read-out: Human cancer cell lines IC50, HCT (Colon)
Protocol: as §1

[4] = test system: THP-1 (Leukemia); test: Sulphorhodamine B cytotoxicity assay, THP-1; type: cell-based, human; set-up: key to Human cancer cell lines IC50, THP-1 (Leukemia): Inactive: inactive, if IC50 > 100 μM; details: for IC50: Homo sapiens, THP-1, read-out: Human cancer cell lines IC50, THP-1 (Leukemia); for IC50 / Human cancer cell lines IC50, THP-1 (Leukemia): SRB assay, 48 hours incubation
Protocol: as §1

[5] = test system: HeLa (Cervix); test: Sulphorhodamine B cytotoxicity assay, HeLa; type: cell-based, human; set-up: key to Human cancer cell lines IC50, HeLa (Cervix): Inactive: inactive, if IC50 > 100 μM; details: SRB assay, 48 hours incubation; for IC50: Homo sapiens, HeLa, read-out: Human cancer cell lines IC50, HeLa (Cervix)
Protocol: as §1

[6] = test system: MCF-7 (Breast cancer); test: Sulphorhodamine B cytotoxicity assay, MCF-7; type: cell-based, human; set-up: key to Human cancer cell lines IC50, MCF-7 (Breast cancer): Inactive: inactive, if IC50 > 100 μM; details: for IC50: Homo sapiens, MCF7, read-out: Human cancer cell lines IC50, MCF-7 (Breast cancer); for IC50 / Human cancer cell lines IC50, MCF-7 (Breast cancer): SRB assay, 48 hours incubation
Protocol: as §1

[7] = test system: DU-145 (prostate); test: Sulphorhodamine B cytotoxicity assay, DU-145; type: cell-based, human; set-up: key to Human cancer cell lines IC50, DU-145 (prostate): Inactive: inactive, if IC50 > 100 μM; details: SRB assay, 48 hours incubation; for IC50: Homo sapiens, DU-145, read-out: Human cancer cell lines IC50, DU-145 (prostate)
Protocol: as §1

[8] = test system: tubulin protein; test: In-vitro tubulin polymerisation inhibition assay; type: biochemical; set-up: key to Tubulin polymerisation inhibition IC50: Inactive: inactive, if IC50 > 10 μM; details: for IC50: read-out: Tubulin polymerisation inhibition IC50; for IC50 / Tubulin polymerisation inhibition IC50: tubulin 3 mg/mL, 37° C., 340 nm, 1 h
Protocol: The tubulin polymerization experiment was performed using ‘assay kit’ (Cytoskeleton USA) following manufacturer's protocol based on the procedure described by of Shelanski et al. (1973) and Lee et al. (1977). Briefly, tubulin protein (3 mg/mL) in tubulin polymerization buffer (80 mM PIPES, pH 6.9, 2 mM MgCl2, 0.5 mM EGTA, 1 mM GTP and 15% glycerol) was placed in pre-warmed 96-well microtiter plates at 37° C. in the presence of test compounds with variable concentrations. All samples were mixed well and polymerization was monitored kinetically at 340 nm every min for 1 h using a Spectramax plate reader. Podophyllotoxin and etoposide were used as positive controls and DMSO as negative control. The IC50 value was determined from dose-dependent analysis and is defined as the concentration that inhibits the rate of polymerization by 50%.
Podophyllotoxin and etoposide, standard tubulin polymerisation inhibitors were used as positive controls.

| Compound | IC50 [1] | Human cancer cell lines IC50, PC-3 (prostate) [2] | IC50 [3] | IC50 [4] | IC50 [5] | IC50 [6] | Human cancer cell lines IC50, DU-145 (prostate) [7] | inhibition of tubulin polymerisation, in words [8] | IC50 [8] | melting point | IC50 [2] | Human cancer cell lines IC50, THP-1 (Leukemia) [4] | Human cancer cell lines IC50, HeLa (Cervix) [5] | anticancer activity against human breast cancer cells (MCF-7), in words [6] | Tubulin polymerisation inhibition IC50 [8] | Human cancer cell lines IC50, A549 (Lung) [1] | Human cancer cell lines IC50, HCT (Colon) [3] | Human cancer cell lines IC50, MCF-7 (Breast cancer) [6] | activity against leukemia cell lines (THP), in words [4] | IC50 [7] |
| --- | --- | --- | --- | --- | --- | --- | --- | --- | --- | --- | --- | --- | --- | --- | --- | --- | --- | --- | --- | --- |
| COc1cc(/C=C2\C(=O)c3cc(OC)c(OC)c(OC)c3C2c2cc(OC)c(OC)c(OC)c2)cc(OC)c1OC (stereo not shown) [Compound 9, 2-(3″,4″,5″-trimethoxybenzylidene), 3-(3′,4′,5′-trimethoxyphenyl)-4,5,6-trimethoxy indan-1-one] | 67.6 µM | Inactive | 39.7 µM | 64.9 µM | 82.3 µM | 38.9 µM | Inactive | strong inhibition | 4.62 µM | 118 to 120 °C |  |  |  |  |  |  |  |  |  |  |
| COc1cc(C2/C(=C/c3ccc(OC)c(OC)c3OC)C(=O)c3cc(OC)c(OC)c(OC)c32)cc(OC)c1OC (stereo not shown) [Compound 15, 2-(2″,3″,4″-trimethoxybenzylidene), 3-(3′,4′,5′-trimethoxyphenyl)-4,5,6-trimethoxy, indan-1-one] | 93 µM |  | 79.6 µM |  |  | 8.88 µM | Inactive |  |  | 163 to 165 °C | 85 µM | Inactive | Inactive | potent anticancer activity | Inactive |  |  |  |  |  |
| COc1cc(C2/C(=C/c3cccc4c3OCO4)C(=O)c3cc(OC)c(OC)c(OC)c32)cc(OC)c1OC (stereo not shown) [Compound 17, 2-(2″,3″-methylenedioxybenzlidene), 3-(3′,4′,5′-trimethoxyphenyl)-4,5,6-trimethoxy indan-1-one] | 82.2 µM | Inactive | 45.9 µM |  |  | 57.2 µM | Inactive |  |  | 180 to 182 °C |  | Inactive | Inactive |  | Inactive |  |  |  |  |  |
| COc1cc(C2/C(=C/c3cccc([N+](=O)[O-])c3)C(=O)c3cc(OC)c(OC)c(OC)c32)cc(OC)c1OC (stereo not shown) [Compound 12, 2-(3″-nitrobenzylidene),3-(3′,4′,5′-trimethoxyphenyl)-4,5,6-trimethoxy indan-1-one] |  | Inactive |  |  |  |  | Inactive |  |  | 215 to 217 °C |  | Inactive | Inactive |  | Inactive | Inactive | Inactive | Inactive |  |  |
| COc1ccc(/C=C2\C(=O)c3cc(OC)c(OC)c(OC)c3C2c2cc(OC)c(OC)c(OC)c2)cc1 (stereo not shown) [Compound 10, 2-(4″-methoxybenzylidene),3(3′,4′,5′-trimethoxyphenyl)-4,5,6-trimethoxy indan-1-one] | 13.4 µM |  | 18.6 µM | 0.88 µM | 21 µM | 3.18 µM |  | strong inhibition | 4.67 µM | 188 to 190 °C | 65.7 µM |  |  | potent anticancer activity |  |  |  |  | potent activity | 44.9 µM |
| COc1cc(C2/C(=C/c3ccc([N+](=O)[O-])cc3)C(=O)c3cc(OC)c(OC)c(OC)c32)cc(OC)c1OC (stereo not shown) [Compound 11, 2-(4″-nitrobenzlidene),3-(3′,4′,5′-trimethoxyphenyl)-4,5,6-trimethoxy indan-1-one] |  | Inactive | 97.3 µM | 89.5 µM |  | 88.1 µM | Inactive |  |  | 190 to 192 °C |  |  | Inactive |  | Inactive | Inactive |  |  |  |  |
| COc1cc(C2/C(=C/c3ccc(OCc4ccccc4)cc3)C(=O)c3cc(OC)c(OC)c(OC)c32)cc(OC)c1OC (stereo not shown) [Compound 22, 2-(4″-benzyloxybenzylidene), 3-(3′,4′,5′-trimethoxyphenyl)-4,5,6-trimethoxy indan-1-one] |  |  |  |  |  |  |  |  |  | 188 to 190 °C | 78.9 µM | Inactive | Inactive |  | Inactive | Inactive | Inactive | Inactive |  | 78.9 µM |
| COc1ccc(/C=C2\C(=O)c3cc(OC)c(OC)c(OC)c3C2c2cc(OC)c(OC)c(OC)c2)c(OC)c1 (stereo not shown) [Compound 21, 2-(2″,4″-dimethoxybenzylidene), 3-(3′,4′,5′-trimethoxyphenyl)-4,5,6-trimethoxy indan-1-one] | 71.6 µM |  | 11.1 µM |  |  | 1 µM |  | strong inhibition | 3.04 µM | 191 to 192 °C | 71.7 µM | Inactive | Inactive | potent anticancer activity |  |  |  |  |  | 2.04 µM |
